Assays:
[1] = Human liver microsome stability; assay type: in vitro ADME; settings: 1 μM compound, NADPH 1 mM, 37° C., 0-60 min; for half-life at 1 μM: human, pooled human liver microsomes, pH 7.4, pooled human liver microsomes 0.5 mg/mL, read-out: HLM Metabolism t1/2
In short: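 Single incubations with human liver microsomes started with 1 mM NADPH; samples taken at 0, 5, 10, 20, 40 and 60 min, quenched in acetonitrile (1:3). Cassette LC-MS analysis with internal standard; t½ derived from slope of ln peak-area ratio versus time (k = −gradient).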

[2] = tested on: HBV (HepG2.117 cell line, inducibly HBV producing); assay: Anti-HBV activity, intracellular HBV DNA by real-time PCR in HepG2.117 cell line; assay type: cell-based, hepatitis B virus; settings: HepG2.117 cells, 3 days of treatment
In short: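 Read-out is intracellular HBV DNA, measured by real-time PCR using HBV-specific primers and probe. Cells were stable, inducible HBV-producing HepG2.117 (Tet-off). Serially diluted compound was applied for 3 days after replication was induced.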

[3] = Cytotoxicity, ATPlite Luminescence Assay; assay type: cell-based, human; settings: human, HepG2 or HepG2.117 cells, 3-days incubation unless marked with *
In short: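 Viability after compound treatment is read as ATP luminescence. Exposure lasts 3 or 4 days.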

[4] = Hepatitis B virus, HepG2.117, 72 h

Compound | half-life at 1 μM [1] [h] | EC50 [2, 4] [µM] | CC50 at 3 days [3] [µM] | EC50 [2] [µM] | HLM Metabolism t1/2 ([1]; pooled human liver microsomes 0.5 mg/mL) [h]
CN=[S@](C)(=O)c1ccc([C@@H](C)N2C[C@@H](C)n3nc4c(c3C2=O)CN(C(=O)c2ccc(Cl)c(Cl)c2)[C@H](C)C4)cn1 (relative stereo) [Compound 29A, (3R,7R)-2-(3,4-dichlorobenzoyl)-9-((R*)-1-(6-((R*)—N,S-dimethylsulfonimidoyl)pyridin-3-yl)ethyl)-3,7-dimethyl-1,2,3,4,8,9-hexahydropyrido[4′,3′:3,4]pyrazolo[1,5-a]pyrazin-10(7H)-one] | 1.7 | 0.74 | > 50 | – | –
CC(c1ccc(C2(O)CC2)cc1)N1C[C@@H](C)n2nc3c(c2C1=O)CN(C(=O)c1ccc(Cl)c(C#N)c1)[C@H](C)C3 (single isomer, unassigned) [Compound 14A, 2-Chloro-5-((3R,7R)-9-((R*)-1-(4-(1-hydroxycyclopropyl)phenyl)ethyl)-3,7-dimethyl-10-oxo-1,2,3,4,7,8,9,10-octahydropyrido[4′,3′:3,4]pyrazolo[1,5-a]pyrazine-2-carbonyl)benzonitrile] | 1.37 | 0.012 | > 50 | – | –
CC(c1ccc(-n2cncn2)nc1)N1C[C@@H](C)n2nc3c(c2C1=O)CN(C(=O)c1ccc(Cl)c(Cl)c1)[C@H](C)C3 (single isomer, unassigned) [Compound 5A, (3R,7R)-9-((R*)-1-(6-(1H-1,2,4-Triazol-1-yl)pyridin-3-yl)ethyl)-2-(3,4-dichlorobenzoyl)-3,7-dimethyl-1,2,3,4,8,9-hexahydropyrido[4′,3′:3,4]pyrazolo[1,5-a]pyrazin-10(7H)-one] | > 3 | – | > 50 | 0.087 | –
CC(c1ccn(CC(C)(C)O)c(=O)c1)N1C[C@@H](C)n2nc3c(c2C1=O)CN(C(=O)c1ccc(Cl)c(C(F)(F)F)c1)[C@H](C)C3 (single isomer, unassigned) [Compound 64A, (3R,7R)-2-(4-chloro-3-(trifluoromethyl)benzoyl)-9-((R*)-1-(1-(2-hydroxy-2-methylpropyl)-2-oxo-1,2-dihydropyridin-4-yl)ethyl)-3,7-dimethyl-1,2,3,4,8,9-hexahydropyrido[4′,3′:3,4]pyrazolo[1,5-a]pyrazin-10(7H)-one] | 1.82 | – | > 50 | 0.039 | –
CNS(=O)(=O)c1ccc(C(C)N2C[C@@H](C)n3nc4c(c3C2=O)CN(C(=O)c2ccc(Cl)c(Cl)c2)[C@H](C)C4)cc1 (single isomer, unassigned) [Compound 17A, 4-((R*)-1-((3R,7R)-2-(3,4-dichlorobenzoyl)-3,7-dimethyl-10-oxo-1,3,4,7,8,10-hexahydropyrido[4′,3′:3,4]pyrazolo[1,5-a]pyrazin-9(2H)-yl)ethyl)-N-methylbenzenesulfonamide] | 2.9 | – | > 50 | 0.077 | –
CC(c1ccc(C(C)(C)O)nc1)N1C[C@@H](C)n2nc3c(c2C1=O)CN(C(=O)c1ccc(Cl)c(C#N)c1)[C@H](C)C3 (single isomer, unassigned) [Compound 63A, 2-chloro-5-((3R,7R)-9-((R*)-1-(6-(2-hydroxypropan-2-yl)pyridin-3-yl)ethyl)-3,7-dimethyl-10-oxo-1,2,3,4,7,8,9,10-octahydropyrido[4′,3′:3,4]pyrazolo[1,5-a]pyrazine-2-carbonyl)benzonitrile] | > 3 | – | > 50 | 0.38 | –
C[C@@H]1Cc2nn3c(c2CN1C(=O)c1ccc(Cl)c(C#N)c1)C(=O)N([C@H](C)c1ccc(OC(F)F)cc1)C[C@H]3C (relative stereo) [Compound 1C, 2-Chloro-5-((3R,7R*)-9-((R*)-1-(4-(difluoromethoxy)phenyl)ethyl)-3,7-dimethyl-10-oxo-1,2,3,4,7,8,9,10-octahydropyrido[4′,3′:3,4]pyrazolo[1,5-a]pyrazine-2-carbonyl)benzonitrile] | > 3 | 0.044 | > 50 | – | –
CC(c1cnn(C2CC2)c(=O)c1)N1C[C@@H](C)n2nc3c(c2C1=O)CN(C(=O)c1ccc(Cl)c(C(F)(F)F)c1)[C@H](C)C3 (single isomer, unassigned) [Compound 54A, (3R,7R)-2-(4-chloro-3-(trifluoromethyl)benzoyl)-9-((R*)-1-(1-cyclopropyl-6-oxo-1,6-dihydropyridazin-4-yl)ethyl)-3,7-dimethyl-1,2,3,4,8,9-hexahydropyrido[4′,3′: 3,4]pyrazolo[1,5-a]pyrazin-10(7H)-one] | 1.29 | – | > 50 | 0.16 | –
CC(c1ncccn1)N1C[C@@H](C)n2nc3c(c2C1=O)CN(C(=O)c1ccc(Cl)c(Cl)c1)[C@H](C)C3 (single isomer, unassigned) [Compound 39A, (3R,7R)-2-(3,4-dichlorobenzoyl)-3,7-dimethyl-9-((R*)-1-(pyrimidin-2-yl)ethyl)-1,2,3,4,8,9-hexahydropyrido[4′,3′:3,4]pyrazolo[1,5-a]pyrazin-10(7H)-one] | 1.59 | – | > 50 | 0.13 | –
CC(c1cn(C2CC2)c(=O)cn1)N1C[C@@H](C)n2nc3c(c2C1=O)CN(C(=O)c1ccc(Cl)c(Cl)c1)[C@H](C)C3 (single isomer, unassigned) [Compound 56A, (3R,7R)-9-((R*)-1-(4-cyclopropyl-5-oxo-4,5-dihydropyrazin-2-yl)ethyl)-2-(3,4-dichlorobenzoyl)-3,7-dimethyl-1,2,3,4,8,9-hexahydropyrido[4′,3′:3,4]pyrazolo[1,5-a]pyrazin-10(7H)-one] | > 3 | – | > 50 | 0.29 | –
CC(c1ccn(C(F)F)c(=O)c1)N1C[C@@H](C)n2nc3c(c2C1=O)CN(C(=O)c1ccc(Cl)c(C(F)(F)F)c1)[C@H](C)C3 (single isomer, unassigned) [Compound 49A, (3R,7R)-2-(4-chloro-3-(trifluoromethyl)benzoyl)-9-((R*)-1-(1-(difluoromethyl)-2-oxo-1,2-dihydropyridin-4-yl)ethyl)-3,7-dimethyl-1,2,3,4,8,9-hexahydropyrido [4′,3′:3,4]pyrazolo[1,5-a]pyrazin-10(7H)-one] | – | – | > 50 | 0.041 | 1.32
CC(c1cnn(C(C)C)c(=O)c1)N1C[C@@H](C)n2nc3c(c2C1=O)CN(C(=O)c1ccc(Cl)c(C(F)(F)F)c1)[C@H](C)C3 (single isomer, unassigned) [Compound 53A, (3R,7R)-2-(4-chloro-3-(trifluoromethyl)benzoyl)-9-((R*)-1-(1-isopropyl-6-oxo-1,6-dihydropyridazin-4-yl)ethyl)-3,7-dimethyl-1,2,3,4,8,9-hexahydropyrido[4′,3′:3,4]pyrazolo[1,5-a]pyrazin-10(7H)-one] | 1.85 | – | > 50 | 0.24 | –
CC(c1ccn(CC(F)(F)F)c(=O)c1)N1C[C@@H](C)n2nc3c(c2C1=O)CN(C(=O)c1ccc(Cl)c(Cl)c1)[C@H](C)C3 (single isomer, unassigned) [Compound 51A, (3R,7R)-2-(3,4-dichlorobenzoyl)-3,7-dimethyl-9-((R*)-1-(2-oxo-1-(2,2,2-trifluoroethyl)-1,2-dihydropyridin-4-yl)ethyl)-1,2,3,4,8,9-hexahydropyrido[4′,3′:3,4]pyrazolo[1,5-a]pyrazin-10(7H)-one] | > 3 | – | > 50 | 0.06 | –
CNC(=O)c1ccc(C(C)N2C[C@@H](C)n3nc4c(c3C2=O)CN(C(=O)c2ccc(Cl)c(Cl)c2)[C@H](C)C4)cn1 (single isomer, unassigned) [Compound 24A, 5-((R*)-1-((3R,7R)-2-(3,4-dichlorobenzoyl)-3,7-dimethyl-10-oxo-1,3,4,7,8,10-hexahydropyrido[4′,3′:3,4]pyrazolo[1,5-a]pyrazin-9(2H)-yl)ethyl)-N-methylpicolinamide] | > 3 | 0.038 | > 50 | – | –
CC(c1ccc(NS(C)(=O)=O)cn1)N1C[C@@H](C)n2nc3c(c2C1=O)CN(C(=O)c1ccc(Cl)c(C(F)(F)F)c1)[C@H](C)C3 (single isomer, unassigned) [Compound 33A, N-(6-((R*)-1-((3R,7R)-2-(4-chloro-3-(trifluoromethyl)benzoyl)-3,7-dimethyl-10-oxo-1,3,4,7,8,10-hexahydropyrido[4′,3′:3,4]pyrazolo[1,5-a]pyrazin-9(2H)-yl)ethyl)pyridin-3-yl)methanesulfonamide] | > 3 | 0.036 | > 50 | – | –
C[C@@H]1Cc2nn3c(c2CN1C(=O)c1ccc(Cl)c(Cl)c1)C(=O)N([C@H](C)c1ccc([S@](C)(=N)=O)cc1)C[C@H]3C (relative stereo) [Compound 18A, (3R,7R)-2-(3,4-dichlorobenzoyl)-3,7-dimethyl-9-((R*)-1-(4-((R*)—S-methylsulfonimidoyl)phenyl)ethyl)-1,2,3,4,8,9-hexahydropyrido[4′,3′:3,4]pyrazolo[1,5-a]pyrazin-10(7H)-one] | > 3 | 0.084 | > 50 | – | –
CC(c1cnc(C(C)(C)O)nc1)N1C[C@@H](C)n2nc3c(c2C1=O)CN(C(=O)c1ccc(Cl)c(Cl)c1)[C@H](C)C3 (single isomer, unassigned) [Compound 36A, (3R,7R)-2-(3,4-Dichlorobenzoyl)-9-((R*)-1-(2-(2-hydroxypropan-2-yl)pyrimidin-5-yl)ethyl)-3,7-dimethyl-1,2,3,4,8,9-hexahydropyrido[4′,3′:3,4]pyrazolo[1,5-a]pyrazin-10(7H)-one] | > 3 | – | > 50 | 0.64 | –
